In one assay the target is Factor XIa (Homo sapiens (Human), UniProt P03951). Description: Factor XIa inhibition assay (FLINT) utilizing a fluorophore-quencher pair peptide substrate. Format: biochemical. Particulars: 30 min preincubation, kinetic reads over 30 min, 5Fam-KLTRAETV-K5Tamra substrate 15 μM; read-out: FXIa Kin Inh IC50. Summed up:
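FXIa ([…]) preincubated 30 min with compound (11-point 3-fold dilution, top 100 nM, 2% DMSO), then 15 μM quenched FXI Arg146-based peptide added; Tris pH 7.5, CaCl2, BSA, CHAPS. Fluorescence 485/520 nm read kinetically every 5 min over 30 min at RT; IC50 by 4-parameter fit.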

The target in a further assay is human plasma kallikrein (Homo sapiens (Human), UniProt P03952). Description: Kallikrein inhibition assay (FLINT) utilizing a quenched AMC peptide substrate. The format is biochemical. Particulars: 30 min preincubation, kinetic reads over 30 min, Z-Gly-Pro-Arg-AMC substrate 50 μM; read-out: Kallikrein Kin Inh IC50. The method, boiled down: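 Enzyme (2 nM final) pre-incubated 30 min at room temperature with compound (11-point, 3-fold, top 1 μM, 2% DMSO), then 50 μM Z-Gly-Pro-Arg-AMC added in Tris pH 7.5 buffer. Kinetic fluorescence 340/440 nm every 5 min over 30 min; IC50 from 4-parameter logistic fit.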
Sequence of human plasma kallikrein (P03952 391-638): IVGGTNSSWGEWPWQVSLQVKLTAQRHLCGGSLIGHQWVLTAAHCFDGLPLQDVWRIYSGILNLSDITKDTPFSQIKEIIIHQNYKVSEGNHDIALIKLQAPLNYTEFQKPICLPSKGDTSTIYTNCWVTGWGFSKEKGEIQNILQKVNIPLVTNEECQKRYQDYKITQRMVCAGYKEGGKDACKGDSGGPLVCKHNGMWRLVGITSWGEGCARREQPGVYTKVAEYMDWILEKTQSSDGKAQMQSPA
Sequence of human plasma kallikrein (P03952 20-390 partner): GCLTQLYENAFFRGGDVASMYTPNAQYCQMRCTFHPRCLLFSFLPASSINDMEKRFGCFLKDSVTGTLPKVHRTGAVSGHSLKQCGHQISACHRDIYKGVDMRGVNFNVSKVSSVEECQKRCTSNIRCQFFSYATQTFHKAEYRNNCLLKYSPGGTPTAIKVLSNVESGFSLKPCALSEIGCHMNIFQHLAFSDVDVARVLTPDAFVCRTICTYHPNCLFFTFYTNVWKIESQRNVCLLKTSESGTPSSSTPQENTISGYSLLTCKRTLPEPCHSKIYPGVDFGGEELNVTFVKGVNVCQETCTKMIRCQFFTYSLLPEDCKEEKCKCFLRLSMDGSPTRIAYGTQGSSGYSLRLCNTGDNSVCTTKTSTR

Sequence of Factor XIa (P03951 388-625): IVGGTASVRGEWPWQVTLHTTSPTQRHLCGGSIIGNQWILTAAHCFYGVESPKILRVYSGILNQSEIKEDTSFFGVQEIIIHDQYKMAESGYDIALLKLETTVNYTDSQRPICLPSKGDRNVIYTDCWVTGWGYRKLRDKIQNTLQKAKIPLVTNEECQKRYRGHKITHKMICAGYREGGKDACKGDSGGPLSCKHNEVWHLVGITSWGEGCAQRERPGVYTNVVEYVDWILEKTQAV
Sequence of Factor XIa (P03951 19-387 partner): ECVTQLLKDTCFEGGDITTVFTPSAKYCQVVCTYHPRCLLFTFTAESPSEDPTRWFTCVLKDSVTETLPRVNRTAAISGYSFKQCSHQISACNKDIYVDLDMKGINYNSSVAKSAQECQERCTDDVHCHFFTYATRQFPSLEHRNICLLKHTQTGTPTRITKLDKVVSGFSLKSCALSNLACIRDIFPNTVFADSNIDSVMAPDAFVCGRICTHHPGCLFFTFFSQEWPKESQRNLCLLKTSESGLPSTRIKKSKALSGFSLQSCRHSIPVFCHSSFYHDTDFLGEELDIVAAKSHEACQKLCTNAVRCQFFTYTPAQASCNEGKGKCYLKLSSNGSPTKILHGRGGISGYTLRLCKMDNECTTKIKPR

Turning to `O=C1C=C(c2c(-n3cnnn3)ccc(Cl)c2F)C[C@H]2CC[C@@H](c3nc(-c4ccc5[nH]ncc5c4)c[nH]3)N12` [Example 43, (3S,8aR)-3-(4-(1H-indazol-5-yl)-1H-imidazol-2-yl)-7-(3-chloro-2-fluoro-6-(1H-tetrazol-1-yl)phenyl)-2,3,8,8a-tetrahydroindolizin-5(1H)-one], the IC50 on Factor XIa came out at 2.1 nM; on human plasma kallikrein, 4 nM.

`COC(=O)Nc1nccc(-c2cnc([C@@H]3CC[C@@H]4CC(c5c(-n6cnnn6)ccc(Cl)c5F)=CC(=O)N43)[nH]2)c1F` [Example 44, Methyl(4-(2-((3S,8aR)-7-(3-chloro-2-fluoro-6-(1H-tetrazol-1-yl)phenyl)-5-oxo-1,2,3,5,8,8a-hexahydroindolizin-3-yl)-1H-imidazol-5-yl)-3-fluoropyridin-2-yl)carbamate]: the results for the IC50 on Factor XIa and at human plasma kallikrein were 1.8 nM and 11.4 nM, respectively.

For `COC(=O)c1nccc(-c2cnc([C@@H]3CC[C@@H]4CC(c5c(-n6cc(Cl)nn6)ccc(Cl)c5F)=CC(=O)N43)[nH]2)c1F` [Example 50], the IC50 on Factor XIa worked out at 19.8 nM; at human plasma kallikrein, 31.6 nM.

As to `O=C1C=C(c2c(-n3cnnn3)ccc(Cl)c2F)C[C@H]2CC[C@@H](c3nc(-c4cccc5[nH]ncc45)c[nH]3)N12` [Example 51, (3S,8aR)-3-(4-(1H-indazol-4-yl)-1H-imidazol-2-yl)-7-(3-chloro-2-fluoro-6-(1H-tetrazol-1-yl)phenyl)-2,3,8,8a-tetrahydroindolizin-5(1H)-one], the IC50 on Factor XIa is 3.8 nM; at human plasma kallikrein, 4.4 nM.

With `COC(=O)c1nccc(-c2cnc([C@@H]3CC[C@@H]4CC(c5c(-n6cnnn6)ccc(Cl)c5F)=CC(=O)N43)[nH]2)c1F` [Example 52, Methyl 4 [2-[(3S,8aR)-7-[3-chloro-2-fluoro-6-(tetrazol-1-yl)phenyl]-5-oxo-2,3,8,8a-tetrahydro-1H-indolizin-3-yl]-1H-imidazol-5-yl]-3-fluoro-pyridine-2-carboxylate], the results for the IC50 on Factor XIa and on human plasma kallikrein were 3.2 nM and 9.5 nM, respectively.

Turning to `O=C1C=C(c2c(-n3cnnn3)ccc(Cl)c2F)CC2CCC(c3ncc(-c4ccnc(-c5ccn[nH]5)c4)[nH]3)N12` (centres unmarked) [Example 53, 3-(5-(2-(1H-pyrazol-5-yl)pyridin-4-yl)-1H-imidazol-2-yl)-7-(3-chloro-2-fluoro-6-(1H-tetrazol-1-yl)phenyl)-2,3,8,8a-tetrahydroindolizin-5(1H)-one], the IC50 at Factor XIa was determined as 1.7 nM; at human plasma kallikrein, 2.8 nM.

Regarding `O=C1C=C(c2cc(Cl)ccc2-n2cnnn2)C(F)(F)C2CC[C@@H](c3ncc(-c4ccnc(CO)c4F)[nH]3)N12` (stereo partly drawn) [Example 56, (3S)-7-(5-chloro-2-(1H-tetrazol-1-yl)phenyl)-8,8-difluoro-3-(5-(3-fluoro-2-(hydroxymethyl)pyridin-4-yl)-1H-imidazol-2-yl)-2,3,8,8a-tetrahydroindolizin-5(1H)-one], the figures for the IC50 on Factor XIa and at human plasma kallikrein were 35.2 nM and 59.2 nM, respectively.

With `Cc1ccc(-n2cnnn2)c(C2=CC(=O)N3[C@H](CC[C@H]3c3ncc(-c4ccnc(CO)c4F)[nH]3)C2)c1F` [Example 57, (3S,8aR)-3-(5-(3-fluoro-2-(hydroxymethyl)pyridin-4-yl)-1H-imidazol-2-yl)-7-(2-fluoro-3-methyl-6-(1H-tetrazol-1-yl)phenyl)-2,3,8,8a-tetrahydroindolizin-5(1H)-one], the figures for the IC50 at Factor XIa and at human plasma kallikrein were 20.2 nM and 106 nM, respectively.

For `O=C(O)c1nccc(-c2cnc([C@@H]3CC[C@@H]4CC(c5c(-n6cc(C(F)(F)F)nn6)ccc(Cl)c5F)=CC(=O)N43)[nH]2)c1F` [Example 58, 4-(2-((3S,8aR)-7-(3-chloro-2-fluoro-6-(4-(trifluoromethyl)-1H-1,2,3-triazol-1-yl)phenyl)-5-oxo-1,2,3,5,8,8a-hexahydroindolizin-3-yl)-1H-imidazol-5-yl)-3-fluoropicolinic acid], the results for the IC50 on Factor XIa and on human plasma kallikrein were 0.7 nM and 49.2 nM, respectively.

Turning to `O=C1C=C(c2c(-n3cnnn3)ccc(Cl)c2F)C[C@H]2CC[C@@H](c3ncc(-c4ccnc(COP(=O)(O)O)c4F)[nH]3)N12` [Example 61, (4-(2-((3S,8aR)-7-(3-chloro-2-fluoro-6-(1H-tetrazol-1-yl)phenyl)-5-oxo-1,2,3,5,8,8a-hexahydroindolizin-3-yl)-1H-imidazol-5-yl)-3-fluoropyridin-2-yl)methyl dihydrogen phosphate], the IC50 at Factor XIa amounted to 0.5 nM; on human plasma kallikrein, 44.4 nM.

Turning to `O=C1C=C(c2c(-n3cnnn3)ccc(Cl)c2F)C[C@H]2CC[C@@H](c3ncc(-c4cc[n+]([O-])c(CO)c4F)[nH]3)N12` [Example 65, 4-(2-((3S,8aR)-7-(3-chloro-2-fluoro-6-(1H-tetrazol-1-yl)phenyl)-5-oxo-1,2,3,5,8,8a-hexahydroindolizin-3-yl)-1H-imidazol-5-yl)-3-fluoro-2-(hydroxymethyl)pyridine 1-oxide], the IC50 at Factor XIa is 45.4 nM; at human plasma kallikrein, 420 nM.

For `O=C1C=C(c2c(-n3cc(C(F)(F)F)nn3)ccc(Cl)c2F)C[C@H]2CC[C@@H](c3ncc(-c4ccnc(CO)c4F)[nH]3)N12` [Example 67, (3S,8aR)-7-(3-chloro-2-fluoro-6-(4-(trifluoromethyl)-1H-1,2,3-triazol-1-yl)phenyl)-3-(5-(3-fluoro-2-(hydroxymethyl)pyridin-4-yl)-1H-imidazol-2-yl)-2,3,8,8a-tetrahydroindolizin-5(1H)-one], the IC50 stood at 10.7 nM on Factor XIa and 85.7 nM on human plasma kallikrein.

As for `Nc1ccnn1-c1nccc(-c2c[nH]c([C@@H]3CC[C@@H]4CC(c5c(-n6cnnn6)ccc(Cl)c5F)=CC(=O)N43)n2)c1F` [Example 68], the IC50 worked out at 30 nM at Factor XIa and 58 nM at human plasma kallikrein.

For `Nc1ccc(-c2[nH]c([C@@H]3CC[C@@H]4CC(c5cc(Cl)ccc5-n5cnnn5)=CC(=O)N43)nc2F)c(F)n1` [Example 69, (3S,8aR)-3-(5-(6-amino-2-fluoropyridin-3-yl)-4-fluoro-1H-imidazol-2-yl)-7-(5-chloro-2-(1H-tetrazol-1-yl)phenyl)-2,3,8,8a-tetrahydroindolizin-5(1H)-one], the IC50 on Factor XIa amounted to 0.3 nM; at human plasma kallikrein, 3.8 nM.

Turning to `CC(C)[C@H](N)C(=O)OCc1nccc(-c2cnc([C@@H]3CC[C@@H]4CC(c5c(-n6cnnn6)ccc(Cl)c5F)=CC(=O)N43)[nH]2)c1F` [Example 75, [4-[2-[(3S,8aR)-7-[3-chloro-2-fluoro-6-(tetrazol-1-yl)phenyl]-5-oxo-2,3,8,8a-tetrahydro-1H-indolizin-3-yl]-1H-imidazol-5-yl]-3-fluoro-2-pyridyl]methyl (2S)-2-amino-3-methyl-butanoate], the IC50 came to 4.3 nM at Factor XIa and 38.3 nM on human plasma kallikrein.

`CC(C)(CO)Nc1nccc(-c2cnc([C@@H]3CC[C@@H]4CC(c5cc(Cl)ccc5-n5cnnn5)=CC(=O)N43)[nH]2)c1F` [Example 79, (3S,8aR)-7-[5-chloro-2-(tetrazol-1-yl)phenyl]-3-[5-[3-fluoro-2-[(2-hydroxy-1,1-dimethyl-ethyl)amino]-4-pyridyl]-1H-imidazol-2-yl]-2,3,8,8a-tetrahydro-1H-indolizin-5-one]: the results for the IC50 at Factor XIa and on human plasma kallikrein were 7.5 nM and 12.2 nM, respectively.

The term IC50 denotes the concentration needed to halve the response being measured.

The record behind these values is US20230295157A1, “3-(1H-IMIDAZOL-2-YL)-2,3,8,8A-TETRAHYDROINDOLIZIN-5(1H)-ONE DERIVATIVES USEFUL AS FACTOR XIA INHIBITORS” (JANSSEN PHARMACEUTICA NV, priority 2020, published 2023).
